Assay results taken from patent publication US12246022B2, “Compositions and methods for treating, preventing or reversing age associated inflammation and disorders” (BROWN UNIVERSITY, priority 2019, dated 2025).
Where two headings read alike, the source gives them in different places.

What was measured:
human LINE-1 = assay: Human LINE-1 retrotransposition assay, related experiments with islatravir (pYX017, HeLa cells, Tables 12 and 13); format: cell-based; conditions: Homo sapiens
Procedure: In related experiments, islatravir and other compounds were tested for inhibition of retrotransposition activity of human LINE-1 in HeLa cells according to the following procedure.
HeLa cervical cancer cells were cultivated at 37° C. in a humidified 5% CO2 incubator in Dulbecco's Modified Eagle's Medium (DMEM)—high glucose, with 4500 mg/L glucose, L-glutamine, sodium pyruvate and sodium bicarbonate (Sigma), supplemented with 10% of heat inactivated fetal bovine serum (Thermo Fisher).
Assays were performed using reporter plasmid pYX017 as described (Xie, et al., 2011) with several modifications. The reporter assay was performed in 96-well white optical bottom plates. HeLa cells were seeded in wells 24 h prior to transfection and compound treatment so that cells were approximately 30% confluent on the day of transfection. Different cell plating densities were tested and a density of 2×10^3 cells was determined to be optimal.
Compounds were resuspended in DMSO. Serial dilutions (1:3) were prepared in DMSO. Medium containing different concentrations of the compounds were prepared by adding 2 μl of the compound dilution to 1 ml of the culture medium. The final concentration of DMSO in the medium was 0.2%.
FuGENE® HD transfection reagent (Promega, E2311, Lot 382574 and Lot 397842) was used to transfect the plasmids into the cells. The transfection reagent: DNA mixture was prepared in OpiMEM (Thermo Fisher) according to manufacturer's instructions. Different ratios of transfection reagent to DNA were tested and a ratio of 3:1 was determined to be optimal. Culture medium was removed from the cells and discarded. The transfection reagent: DNA mixture (5 μl) was mixed with the compound containing medium (100 μl/well) and this was added onto the cells of each well. Cells were incubated at 37° C./5% CO2 for different incubation time. A 72 h incubation time was determined to be optimal.
Luciferase reporter activity was quantified with the Dual-Luciferase® Reporter Assay System (Promega) according to manufacturer's instructions for multiwell plates except that cells were lysed directly on the multiwell plate with 30 μl of the passive lysis buffer (PLB) for 20 min at room temperature, with gentle shaking to ensure complete cell lysis.
Firefly and Renilla luciferase signals were measured using a SpectraMax i3x Multi-Mode Microplate Reader. Integration times of 100 ms and 10 ms were used to measure the Firefly and Renilla signals respectively. Relative L1 activity is calculated as Firefly/Renilla *1000 or Firefly/Renilla *10,000. Dose response inhibition data were fit to a four parameter logistic equation using non-linear regression (using Graphpad Prism 8), to determine IC50 values for each inhibitor.

[1] = Comparative studies: intracellular drug concentration relative to LINE-1 IC50 and huCSF/Plasma ratio; conditions: Table 13 Comparative Studies
[2] = 300 mg per day; cited from earlier work
[3] = format: in vivo; conditions: mice, 1.5, 2.0, 2.5 mg/ml in drinking water from 18 to 24 months
Procedure: C57BL/6J mice of both sexes were obtained from the NIA Aged Rodent Colonies^61 at 5 and 18 months of age. The 5-month old animals were sacrificed after a short (1 week) acclimatization period, a variety of tissues were harvested, snap frozen in LN2 and stored at −80° C. The 18-month old animals were housed until they reached a desired age. Mice were housed in a specific pathogen-free AAALAC-certified barrier facility. Cages, bedding (Sani-chip hardwood bedding) and food (Purina Lab Chow 5010) were sterilized by autoclaving. Food and water (also sterilized) were provided ad libitum. A light-dark cycle of 12 hours was used (7 AM On, 7 PM Off). Temperature was maintained at 70° F., and humidity at 50%. All animals were observed daily and weighed once per week. In a pilot experiment, three cohorts of 10 animals each were treated with 3TC dissolved in drinking water (1.5 mg/ml, 2.0 mg/ml, 2.5 mg/ml) continuously from 18 months until sacrifice at 24 months. The fourth (control) cohort was provided with the same water without drug. […] Once during the experiment (at 20 months of age) the animals were subjected to a single tail bleed of approximately 70 μL. The collected plasma was shipped to the University of North Carolina CFAR Clinical Pharmacology and Analytical Chemistry Core for analysis of 3TC. For the 2 mg/mL cohort the concentration of 3TC in plasma averaged 7.2 μM. […]

[4] = HeLa, Table 13 Comparative Studies, read-out: Human Line-1 IC50

| SMILES | IC50 (human LINE-1; [4]) [nM] | Human Line-1 Intracellular drug conc. (% of IC-50 conc.) [1] [%] | IC50 (human LINE-1; HeLa cells, pYX017, 72 h, n = 3, read-out: Human LINE-1 IC50, Average) [nM] | IC50 (human LINE-1; HeLa cells, pYX017, 72 h, read-out: Human LINE-1 IC50, Exp.1) [nM] | IC50 (human LINE-1; HeLa cells, pYX017, 72 h, read-out: Human LINE-1 IC50, Exp.2) [nM] | 3TC in plasma at human HIV therapeutic dose [2] [µM] | behavior, weight, or survival versus control cohort [3] |
| --- | --- | --- | --- | --- | --- | --- | --- |
| Nc1nc(=O)n([C@@H]2CS[C@H](CO)O2)cc1F [Emtricitabine] | 1340 | 67 | – | – | – | – | – |
| Nc1ccn([C@@H]2CS[C@H](CO)O2)c(=O)n1 [Lamivudine] | 640 | 9 | 800 | 900 | 700 | 5 to 8 | No significant differences in behavior, weight, or survival |
